Reference: patent publication US20260132132A1, “3A,4,5,6-TETRAHYDRO-1 H-PYRAZOLO[3,4-C]PYRIDIN-7(7AH)-ONE DERIVATIVES AS FACTOR XIIA INHIBITORS” (KALVISTA PHARMACEUTICALS LIMITED, priority 2022, published 2026)

Experiments:
FXa = FXa (Homo sapiens, UniProt P00742); assay: Related protease inhibition: FXa, fluorogenic substrate; type: biochemical; conditions: fluorogenic substrate at Km, 25° C.; H1-H3 = % activity at 40 μM
Protocol: Human serine protease enzyme Plasma Kallikrein, KLK1, FXa, Plasmin, Thrombin and Trypsin were assayed for enzymatic activity using an appropriate fluorogenic substrate at Km concentration, FXIa at fixed substrate concentration of 100 μM and various concentrations of the test compound.

[1] = molecular target: T1, Human Factor XIIa (hFXIIa) (Homo sapiens, UniProt P00748); assay: Determination of Human Factor XIIa (hFXIIa) inhibition, fluorogenic substrate IC50 assay; type: biochemical; conditions: fluorogenic substrate H-DPro-Phe-Arg-AFC at Km, 25° C., read-out: Human FXIIa IC50
T1 construct: purchased Enzyme Research Laboratories
T1 sequence (P00748 373-615 limits assumed): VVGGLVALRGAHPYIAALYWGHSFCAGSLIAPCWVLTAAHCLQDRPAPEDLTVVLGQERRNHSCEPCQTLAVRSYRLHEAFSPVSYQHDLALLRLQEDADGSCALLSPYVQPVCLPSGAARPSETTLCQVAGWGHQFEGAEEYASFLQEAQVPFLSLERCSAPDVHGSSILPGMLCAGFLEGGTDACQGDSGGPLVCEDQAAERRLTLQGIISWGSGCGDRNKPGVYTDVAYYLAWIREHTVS
T1 sequence (P00748 20-372 partner limits assumed): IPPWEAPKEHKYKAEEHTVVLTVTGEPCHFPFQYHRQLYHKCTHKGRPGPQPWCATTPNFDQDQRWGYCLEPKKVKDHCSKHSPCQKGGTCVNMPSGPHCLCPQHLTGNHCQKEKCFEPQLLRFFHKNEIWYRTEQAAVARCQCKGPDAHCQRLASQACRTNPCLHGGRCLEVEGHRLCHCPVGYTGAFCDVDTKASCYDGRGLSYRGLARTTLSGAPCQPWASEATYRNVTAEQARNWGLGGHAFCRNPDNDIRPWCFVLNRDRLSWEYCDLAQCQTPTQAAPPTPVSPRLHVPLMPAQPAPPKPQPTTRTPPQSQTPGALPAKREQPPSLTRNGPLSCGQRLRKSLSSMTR
Protocol: Determination of Human Factor XIIa (hFXIIa) inhibition
The Km for the cleavage of the substrate by hFXIIa was determined by standard transformation of the Michaelis-Menten equation, with subsequent inhibition assays performed at substrate Km concentration.

Sequence of FXa (P00742 235-488 limits assumed): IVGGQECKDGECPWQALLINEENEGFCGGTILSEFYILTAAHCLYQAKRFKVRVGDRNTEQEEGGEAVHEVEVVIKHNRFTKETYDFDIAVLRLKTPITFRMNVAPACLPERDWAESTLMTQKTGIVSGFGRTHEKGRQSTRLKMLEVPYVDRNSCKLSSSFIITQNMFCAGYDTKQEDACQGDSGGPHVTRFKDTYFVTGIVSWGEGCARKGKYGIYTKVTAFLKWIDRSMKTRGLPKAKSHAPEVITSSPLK
Sequence of FXa (P00742 41-179 partner limits assumed): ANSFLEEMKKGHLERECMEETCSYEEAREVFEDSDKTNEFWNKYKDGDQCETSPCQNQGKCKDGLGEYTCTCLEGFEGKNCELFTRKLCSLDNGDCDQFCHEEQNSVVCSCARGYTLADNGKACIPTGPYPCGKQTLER

IC50 (FXa)	IC50 [1]	SMILES
> 40 µM	0.01 to 0.1 µM	O=C(NCc1ccco1)c1nn(-c2cccc(Cl)c2)c2c1CCN(c1ccc3c(c1)CN(CCO)CC3)C2=O [Example 1109, 1-(3-chlorophenyl)-N-(furan-2-ylmethyl)-6-(2-(2-hydroxyethyl)-1,2,3,4-tetrahydroisoquinolin-7-yl)-7-oxo-4,5,6,7-tetrahydro-1H-pyrazolo[3,4-c]pyridine-3-carboxamide]
3 to 10 µM	1 to 3 µM	CN1CCc2ccc(N3CCc4c(COCC(=O)O)nn(-c5cccc(Cl)c5)c4C3=O)cc2C1=O [Example 1358, 2-((1-(3-chlorophenyl)-6-(2-methyl-1-oxo-1,2,3,4-tetrahydroisoquinolin-7-yl)-7-oxo-4,5,6,7-tetrahydro-1H-pyrazolo[3,4-c]pyridin-3-yl)methoxy)acetic acid]
10 to 40 µM	0.01 to 0.1 µM	O=C(NCc1ncccc1F)c1nn(-c2cccc(Cl)c2)c2c1CCN(c1ccc3c(c1)CN(CCO)CC3)C2=O [Example 1130, 1-(3-chlorophenyl)-N-((3-fluoropyridin-2-yl)methyl)-6-(2-(2-hydroxyethyl)-1,2,3,4-tetrahydroisoquinolin-7-yl)-7-oxo-4,5,6,7-tetrahydro-1H-pyrazolo[3,4-c]pyridine-3-carboxamide]
> 40 µM	0.01 to 0.1 µM	Cc1ccncc1CNC(=O)c1nn(-c2cccc(Cl)c2)c2c1CCN(c1ccc3c(c1)C(=O)N(C)CC3)C2=O [Example 1159, 1-(3-Chlorophenyl)-6-(2-methyl-1-oxo-1,2,3,4-tetrahydroisoquinolin-7-yl)-N-((4-methylpyridin-3-yl)methyl)-7-oxo-4,5,6,7-tetrahydro-1H-pyrazolo[3,4-c]pyridine-3-carboxamide]
> 40 µM	0.3 to 1 µM	Cc1ccc(CNC(=O)c2nn(-c3cccc(Cl)c3)c3c2CCN(c2ccc4c(c2)C(=O)N(C)CC4)C3=O)nn1 [Example 1267, 1-(3-chlorophenyl)-6-(2-methyl-1-oxo-1,2,3,4-tetrahydroisoquinolin-7-yl)-N-((6-methylpyridazin-3-yl)methyl)-7-oxo-4,5,6,7-tetrahydro-1H-pyrazolo[3,4-c]pyridine-3-carboxamide]
10 to 40 µM	0.1 to 0.3 µM	Cc1cc(CNC(=O)c2nn(-c3cccc(Cl)c3)c3c2CCN(c2cc4c(nn2)CCN(CCO)C4)C3=O)nn1C [Example 1227, 1-(3-chlorophenyl)-N-((1,5-dimethyl-1H-pyrazol-3-yl)methyl)-6-(6-(2-hydroxyethyl)-5,6,7,8-tetrahydropyrido[4,3-c]pyridazin-3-yl)-7-oxo-4,5,6,7-tetrahydro-1H-pyrazolo[3,4-c]pyridine-3-carboxamide]
10 to 40 µM	0.01 to 0.1 µM	COc1ccnc(CNC(=O)c2nn(-c3cccc(Cl)c3)c3c2CCN(c2ccc4c(c2)CN(CCO)CC4)C3=O)c1 [Example 1230, 1-(3-chlorophenyl)-6-(2-(2-hydroxyethyl)-1,2,3,4-tetrahydroisoquinolin-7-yl)-N-((4-methoxypyridin-2-yl)methyl)-7-oxo-4,5,6,7-tetrahydro-1H-pyrazolo[3,4-c]pyridine-3-carboxamide]
> 40 µM	0.3 to 1 µM	Cc1noc(C)c1CNC(=O)c1nn(-c2cccc(Cl)c2)c2c1CCN(c1ccc3c(c1)C(=O)N(C)CC3)C2=O [Example 1185, 1-(3-chlorophenyl)-N-((3,5-dimethylisoxazol-4-yl)methyl)-6-(2-methyl-1-oxo-1,2,3,4-tetrahydroisoquinolin-7-yl)-7-oxo-4,5,6,7-tetrahydro-1H-pyrazolo[3,4-c]pyridine-3-carboxamide]
10 to 40 µM	0.1 to 0.3 µM	Cc1cncc(CNC(=O)c2nn(-c3cccc(Cl)c3)c3c2CCN(c2ccc4c(c2)C(=O)N(C)CC4)C3=O)c1 [Example 1201, 1-(3-chlorophenyl)-6-(2-methyl-1-oxo-1,2,3,4-tetrahydroisoquinolin-7-yl)-N-((5-methylpyridin-3-yl)methyl)-7-oxo-4,5,6,7-tetrahydro-1H-pyrazolo[3,4-c]pyridine-3-carboxamide]
10 to 40 µM	0.1 to 0.3 µM	COc1cc(CNC(=O)c2nn(-c3cccc(Cl)c3)c3c2CCN(c2ccc4c(c2)C(=O)N(C)CC4)C3=O)nn1C [Example 1186, 1-(3-chlorophenyl)-N-((5-methoxy-1-methyl-1H-pyrazol-3-yl)methyl)-6-(2-methyl-1-oxo-1,2,3,4-tetrahydroisoquinolin-7-yl)-7-oxo-4,5,6,7-tetrahydro-1H-pyrazolo[3,4-c]pyridine-3-carboxamide]
10 to 40 µM	0.01 to 0.1 µM	Cc1cn(C)nc1CNC(=O)c1nn(-c2cccc(Cl)c2)c2c1CCN(c1ccc3c(c1)C(=O)N(CCO)CC3)C2=O [Example 1217, 1-(3-Chlorophenyl)-N-[(1,4-dimethylpyrazol-3-yl)methyl]-6-[2-(2-hydroxyethyl)-1-oxo-3,4-dihydroisoquinolin-7-yl]-7-oxo-4,5-dihydropyrazolo[3,4-c]pyridine-3-carboxamide]
10 to 40 µM	0.1 to 0.3 µM	Cc1cc(CNC(=O)c2nn(-c3cccc(Cl)c3)c3c2CCN(c2ccc4c(c2)C(=O)N(C)CC4)C3=O)n[nH]1 [Example 1200, 1-(3-chlorophenyl)-6-(2-methyl-1-oxo-1,2,3,4-tetrahydroisoquinolin-7-yl)-N-((5-methyl-1H-pyrazol-3-yl)methyl)-7-oxo-4,5,6,7-tetrahydro-1H-pyrazolo[3,4-c]pyridine-3-carboxamide]
3 to 10 µM	0.1 to 0.3 µM	CN1CCCc2ccc(N3CCc4c(C(=O)NCc5ccccc5)nn(-c5cccc(Cl)c5)c4C3=O)cc2C1 [Example 1030, N-benzyl-1-(3-chlorophenyl)-6-(2-methyl-2,3,4,5-tetrahydro-1H-benzo[c]azepin-8-yl)-7-oxo-4,5,6,7-tetrahydro-1H-pyrazolo[3,4-c]pyridine-3-carboxamide]
3 to 10 µM	1 to 3 µM	Cc1ccncc1COCc1nn(-c2cccc(Cl)c2)c2c1CCN(c1ccc3c(c1)C(=O)N(C)CC3)C2=O [Example 1356, 7-(1-(3-chlorophenyl)-3-(((4-methylpyridin-3-yl)methoxy)methyl)-7-oxo-1,4,5,7-tetrahydro-6H-pyrazolo[3,4-c]pyridin-6-yl)-2-methyl-3,4-dihydroisoquinolin-1(2H)-one]
> 40 µM	1 to 3 µM	Cc1cc(CNC(=O)c2nn(-c3cccc(Cl)c3)c3c2CCN(c2ccc4c(c2)C(=O)N(C)[C@@H](CO)CO4)C3=O)nn1C [Example 1395, (S)-1-(3-chlorophenyl)-N-((1,5-dimethyl-1H-pyrazol-3-yl)methyl)-6-(3-(hydroxymethyl)-4-methyl-5-oxo-2,3,4,5-tetrahydrobenzo[f][1,4]oxazepin-7-yl)-7-oxo-4,5,6,7-tetrahydro-1H-pyrazolo[3,4-c]pyridine-3-carboxamide]
10 to 40 µM	0.01 to 0.1 µM	Cc1cncc(CNC(=O)c2nn(-c3cccc(Cl)c3)c3c2CCN(c2ccc4c(c2)CN(CCO)CC4)C3=O)c1 [Example 1126, 1-(3-chlorophenyl)-6-(2-(2-hydroxyethyl)-1,2,3,4-tetrahydroisoquinolin-7-yl)-N-((5-methylpyridin-3-yl)methyl)-7-oxo-4,5,6,7-tetrahydro-1H-pyrazolo[3,4-c]pyridine-3-carboxamide]
> 40 µM	0.3 to 1 µM	C[C@H]1CN(CCO)Cc2cc(N3CCc4c(C(=O)NCC5CC5)nn(-c5cccc(Cl)c5)c4C3=O)ccc21 [Example 1152, (R)-1-(3-chlorophenyl)-N-(cyclopropylmethyl)-6-(2-(2-hydroxyethyl)-4-methyl-1,2,3,4-tetrahydroisoquinolin-7-yl)-7-oxo-4,5,6,7-tetrahydro-1H-pyrazolo[3,4-c]pyridine-3-carboxamide]
10 to 40 µM	0.01 to 0.1 µM	O=C(NCc1ccn[nH]1)c1nn(-c2cccc(Cl)c2)c2c1CCN(c1ccc3c(c1)CN(CCO)CC3)C2=O [Example 1089, N-((1H-pyrazol-5-yl)methyl)-1-(3-chlorophenyl)-6-(2-(2-hydroxyethyl)-1,2,3,4-tetrahydroisoquinolin-7-yl)-7-oxo-4,5,6,7-tetrahydro-1H-pyrazolo[3,4-c]pyridine-3-carboxamide]
1 to 3 µM	0.01 to 0.1 µM	Cc1cc(CNC(=O)c2nn(-c3cccc(Cl)c3)c3c2CCN(c2ccc4c(c2)C(=O)N(CC(N)=O)CC4)C3=O)n[nH]1 [Example 1321, 6-(2-(2-amino-2-oxoethyl)-1-oxo-1,2,3,4-tetrahydroisoquinolin-7-yl)-1-(3-chlorophenyl)-N-((5-methyl-1H-pyrazol-3-yl)methyl)-7-oxo-4,5,6,7-tetrahydro-1H-pyrazolo[3,4-c]pyridine-3-carboxamide]
> 40 µM	3 to 10 µM	CCNC(=O)c1nn(-c2cccc(Cl)c2)c2c1CCN(c1cccc(N3CCCOC3=O)c1)C2=O [Example 1363, 1-(3-chlorophenyl)-N-ethyl-7-oxo-6-(3-(2-oxo-1,3-oxazinan-3-yl)phenyl)-4,5,6,7-tetrahydro-1H-pyrazolo[3,4-c]pyridine-3-carboxamide]
